We go through 65 molecules from patent US20060205743A1, “Protein kinase inhibitors” (priority 2003, published 2006).

Each structure is given as a SMILES string.

The experiment concerns the target MAPKAP-K2 (Homo sapiens, UniProt P49137). As to the kind of experiment: MAPKAP-Kinase 2 Assay (33P-ATP peptide phosphorylation, filter plate). Type of experiment: biochemical. Also noted: key: +: active; ++: more active; +++: very active. Conditions: assays conducted at typically 1-100 μM. How it is done:
MAPKAP-Kinase 2 Assay [Compound Preparation]
Compounds are dissolved in DMSO at a concentration of 3 mM and stored in aliquots at −20° C. Compounds in DMSO from these stock aliquots are diluted in 30% DMSO to produce initial working stock solutions of 1 mM and 3 mM. Both of these stock solutions are then subjected to 1:10 serial dilutions in 30% DMSO in order to prepare 3000, 1000, 300, 100, 30, 10, 3, 1, 0.1, 0.01 μM stock solutions. 5 μl of each stock solution is used per 50 μl reaction to give final assay concentrations of 300, 100, 30, 10, 3, 1, 0.3, 0.1, 0.01, 0.001 μM.
The kinase reaction is conducted in a round-bottomed polypropylene 96-well plate. MAPKAP-K2 is diluted to 25 mU/μl in diluent buffer (50 mM Tris/HCl. pH7.5, 0.1 mM EGTA, 0.1% (v/v) β-mercaptoethanol, 1 mg/ml BSA). 5 μl compound or 30% DMSO is added to each well followed by 25 μl substrate cocktail (10 μM ATP, 30 μM peptide (KKLNRTLSVA), 0.5 μCi ^33P-γ-ATP in 50 mM Tris pH7.5, 0.1 mM EGTA, 10 mM Mg-acetate, 0.1% BME). The reaction is initiated with the addition of 20 μl enzyme solution per well or 20 μl diluent buffer without enzyme. The plate is shaken for 10 sec and then left at room temperature for 30 min. The reaction is terminated with 50 μl 150 mM phosphoric acid. 90 μl of the reaction mixture is then transferred into a 96-well P81 filter plate (Millipore) and incubated at room temperature for 5 min. The filter plate is then washed 4 times with 200 μl 75 mM phosphoric acid per well on a plate vacuum manifold (Millipore) and dried in an oven for 2-3 h. Packard MicroScint ‘0’ (30 μl) is then added to each well, the plate is mixed for 30 min and subjected to liquid scintillation counting on a Packard TopCount.
[Interpretation] %Control=(X−B)/(Tot−B)×100 %Inhibition=100−% Control X=cpm of the test compound wells B=cpm of wells without enzyme Tot=cpm of wells with DMSO vehicle only

Chain of MAPKAP-K2 (P49137 whole entry): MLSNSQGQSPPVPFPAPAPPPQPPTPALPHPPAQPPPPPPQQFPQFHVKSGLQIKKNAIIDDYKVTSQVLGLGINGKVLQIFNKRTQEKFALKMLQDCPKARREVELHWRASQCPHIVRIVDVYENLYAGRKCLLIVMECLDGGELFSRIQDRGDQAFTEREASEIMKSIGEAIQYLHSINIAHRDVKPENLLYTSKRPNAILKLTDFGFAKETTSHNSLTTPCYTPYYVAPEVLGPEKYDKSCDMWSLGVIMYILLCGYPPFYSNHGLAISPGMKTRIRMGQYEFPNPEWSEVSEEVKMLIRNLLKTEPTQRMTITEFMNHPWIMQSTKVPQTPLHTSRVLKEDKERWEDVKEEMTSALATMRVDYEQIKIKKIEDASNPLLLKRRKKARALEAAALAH

Turning to `CNC(=S)N[C@H]1CC[C@H](Nc2cc(Nc3ccc(F)c(Cl)c3)n3nccc3n2)CC1` [Compound 57], the MAPKAP-K2 activity entry was “+”.
To `C=C(C)CNc1cc(NC2CCC(N)CC2)nc2ccnn12` (centres unmarked) [Compound 58] belongs “+++”; to `C#CCNc1cc(NC2CCC(N)CC2)nc2ccnn12` (centres unmarked) [Compound 59], “+++”.
Take `N[C@H]1CC[C@H](Nc2cc(Nc3ccc(Cl)cc3Cl)n3nccc3n2)CC1` [Compound 60]: the MAPKAP-K2 activity entry is recorded as “+++”.
For the molecule `NC1CCCC(Nc2cc(Nc3ccc(F)c(Cl)c3)n3nccc3n2)C1` (centres unmarked) [Compound 61], the MAPKAP-K2 activity entry is given as “+”.
As for `COc1cccc(Nc2cc(N[C@H]3CC[C@H](N)CC3)nc3ccnn23)c1` [Compound 62], the MAPKAP-K2 activity result is “+++”.
To `N[C@H]1CC[C@H](Nc2cc(Nc3cccc(OC(F)(F)F)c3)n3nccc3n2)CC1` [Compound 63] belongs “+++”; to `N[C@H]1CC[C@H](Nc2cc(Nc3cccc(OCc4ccccc4)c3)n3nccc3n2)CC1` [Compound 64], “+++”; to `CCOc1cccc(Nc2cc(N[C@H]3CC[C@H](N)CC3)nc3ccnn23)c1` [Compound 65], “+++”.
To `N[C@H]1CC[C@H](Nc2cc(Nc3ccccc3F)n3nccc3n2)CC1` [Compound 66] belongs “+++”; to `N[C@H]1CC[C@H](Nc2cc(Nc3cccc(Cl)c3Cl)n3nccc3n2)CC1` [Compound 67], “+++”.
As for `N[C@H]1CC[C@H](Nc2cc(Nc3cc(Cl)ccc3Cl)n3nccc3n2)CC1` [Compound 68], the MAPKAP-K2 activity entry is “+++”.
To `N[C@H]1CC[C@H](Nc2cc(Nc3c(Cl)cccc3Cl)n3nccc3n2)CC1` [Compound 69] belongs “+++”.
To `N[C@H]1CC[C@H](Nc2cc(Nc3ccc(O)cc3)n3nccc3n2)CC1` [Compound 70] belongs “+++”; to `N[C@H]1CC[C@H](Nc2cc(NCc3ccccc3Cl)n3nccc3n2)CC1` [Compound 71], “++”.
Take `NC1CCCN(c2cc(Nc3ccc(F)c(Cl)c3)n3nccc3n2)C1` (centres unmarked) [Compound 72]: the MAPKAP-K2 activity result is “++”.
On to `Fc1ccc(Nc2cc(NC3CCNC3)nc3ccnn23)cc1Cl` (centres unmarked) [Compound 73], for which the MAPKAP-K2 activity entry is given as “++”.
To `Fc1ccc(Nc2cc(NC3CCCNC3)nc3ccnn23)cc1Cl` (centres unmarked) [Compound 74] belongs “+++”; to `Cc1ccc(C)c(Nc2cc(N[C@H]3CC[C@H](N)CC3)nc3ccnn23)c1` [Compound 75], “+++”; to `Cc1cccc(Nc2cc(N[C@H]3CC[C@H](N)CC3)nc3ccnn23)c1C` [Compound 76], “+++”.
To `Cc1ccc(Nc2cc(N[C@H]3CC[C@H](N)CC3)nc3ccnn23)cc1C` [Compound 77] belongs “+++”.
`NCCCCNc1cc(Nc2ccc(F)c(Cl)c2)n2nccc2n1` [Compound 78]: the MAPKAP-K2 activity result is on record as “+”.
To `N#C/N=C(\N)NC1CCC(Nc2cc(Nc3ccc(F)c(Cl)c3)n3nccc3n2)CC1` (centres unmarked) [Compound 79] belongs “++”.
With `CN(CCN)c1cc(Nc2ccc(F)c(Cl)c2)n2nccc2n1` [Compound 80], the MAPKAP-K2 activity result is reported as “+”.
To `Fc1ccc(Nc2cc(N3CCNCC3)nc3ccnn23)cc1Cl` [Compound 81] belongs “+”; to `NC1CCN(c2cc(Nc3ccc(F)c(Cl)c3)n3nccc3n2)C1` (centres unmarked) [Compound 82], “+”; to `N[C@H]1CC[C@H](Nc2cc(Nc3cccc(Br)c3)n3nccc3n2)CC1` [Compound 83], “+++”.
To `NC1CCC(Nc2cc(Nc3ccc(Br)cc3)n3nccc3n2)CC1` (centres unmarked) [Compound 84] belongs “+++”; to `NC1CCC(Nc2cc(Nc3ccc(I)cc3)n3nccc3n2)CC1` (centres unmarked) [Compound 85], “+++”.
To `CNCCNc1cc(Nc2ccc(F)c(Cl)c2)n2nccc2n1` [Compound 86] belongs “++”; to `CN[C@H]1CC[C@H](Nc2cc(Nc3ccc(F)c(Cl)c3)n3nccc3n2)CC1` [Compound 87], “+++”; to `Fc1ccc(Nc2cc(NC3CCNCC3)nc3ccnn23)cc1Cl` [Compound 88], “++”.
As to `CCN[C@H]1CC[C@H](Nc2cc(Nc3ccc(F)c(Cl)c3)n3nccc3n2)CC1` [Compound 89], the MAPKAP-K2 activity result is “+++”.
In the case of `N[C@H]1CC[C@H](Nc2cc(NCc3ccccn3)n3nccc3n2)CC1` [Compound 90], the MAPKAP-K2 activity entry is “++”.
For `NC1CCC(Nc2cc(Nc3ccc(C(F)(F)F)cc3Cl)n3nccc3n2)CC1` (centres unmarked) [Compound 91], the MAPKAP-K2 activity result is on record as “+++”.
To `NC1CCC(Nc2cc(Nc3ccccc3C(F)(F)F)n3nccc3n2)CC1` (centres unmarked) [Compound 93] belongs “++”; to `NCCCNc1cc(Nc2ccc(F)c(Cl)c2)n2nccc2n1` [Compound 94], “+”; to `NC1CCN(c2cc(Nc3ccc(F)c(Cl)c3)n3nccc3n2)CC1` [Compound 95], “+”.
To `COc1ccccc1Nc1cc(NC2CCCNC2)nc2ccnn12` (centres unmarked) [Compound 96] belongs “++”; to `COc1cccc(Nc2cc(NC3CCCNC3)nc3ccnn23)c1` (centres unmarked) [Compound 97], “+++”; to `c1ccc(COc2cccc(Nc3cc(NC4CCCNC4)nc4ccnn34)c2)cc1` (centres unmarked) [Compound 98], “+++”.
For the molecule `COc1ccc(Cl)c(Nc2cc(NC3CCC(N)CC3)nc3ccnn23)c1` (centres unmarked) [Compound 99], the MAPKAP-K2 activity result is listed as “+++”.
Take `NC1CCC(Nc2cc(Nc3ccccc3I)n3nccc3n2)CC1` (centres unmarked) [Compound 101]: the MAPKAP-K2 activity result is reported as “+++”.
Take `NC1CCC(Nc2cc(Nc3ccccc3Br)n3nccc3n2)CC1` (centres unmarked) [Compound 102]: the MAPKAP-K2 activity result was “+++”.
To `COc1ccc(Nc2cc(NC3CCC(N)CC3)nc3ccnn23)c(OC)c1OC` (centres unmarked) [Compound 103] belongs “++”; to `CCCCOc1ccc(Nc2cc(NC3CCC(N)CC3)nc3ccnn23)cc1` (centres unmarked) [Compound 104], “+++”.
Regarding `CCOc1cccc(Nc2cc(NC3CCCNC3)nc3ccnn23)c1` (centres unmarked) [Compound 105], the MAPKAP-K2 activity entry is “+++”.
`Ic1ccc(Nc2cc(NC3CCCNC3)nc3ccnn23)cc1` (centres unmarked) [Compound 106]: the MAPKAP-K2 activity result is given as “+++”.
Regarding `NC1CCC(Nc2cc(Nc3ccc(OC(F)(F)F)cc3Cl)n3nccc3n2)CC1` (centres unmarked) [Compound 107], the MAPKAP-K2 activity result is recorded as “+++”.
On to `NC1CCC(Nc2cc(Nc3ccc(F)cc3Cl)n3nccc3n2)CC1` (centres unmarked) [Compound 108], for which the MAPKAP-K2 activity entry was “+++”.
To `NC1CCC(Nc2cc(Nc3c(F)cccc3F)n3nccc3n2)CC1` (centres unmarked) [Compound 109] belongs “+++”.
In the case of `C#CC(C)(C)Nc1cc(NC2CCC(N)CC2)nc2ccnn12` (centres unmarked) [Compound 111], the MAPKAP-K2 activity result was “++”.
With `COc1ccc(Nc2cc(NC3CCC(N)CC3)nc3ccnn23)c(F)c1` (centres unmarked) [Compound 112], the MAPKAP-K2 activity result is on record as “+++”.
To `CC(C)Oc1ccc(Nc2cc(NC3CCC(N)CC3)nc3ccnn23)c(F)c1` (centres unmarked) [Compound 113] belongs “+++”; to `COc1ccc(Nc2cc(NC3CCC(N)CC3)nc3ccnn23)c(C)c1` (centres unmarked) [Compound 114], “++”; to `CC(C)=CCCC(C)=CCNc1cc(NC2CCC(N)CC2)nc2ccnn12` (centres unmarked) [Compound 115], “+++”.
To `NCCNc1cc(Nc2ccc(F)c(Cl)c2)n2nccc2n1` [Compound 116] belongs “+”; to `Fc1ccc(Nc2cc(NC3CCC(NCc4ccccc4)CC3)nc3ccnn23)cc1Cl` (centres unmarked) [Compound 120], “+”; to `Fc1ccc(Nc2cc(NC3CCC(NCCc4ccccc4)CC3)nc3ccnn23)cc1Cl` (centres unmarked) [Compound 121], “++”.
To `Fc1ccc(Nc2cc(NC3CCC(NCCCc4ccccc4)CC3)nc3ccnn23)cc1Cl` (centres unmarked) [Compound 124] belongs “++”.
For the molecule `CCCCCNC1CCC(Nc2cc(Nc3ccc(F)c(Cl)c3)n3nccc3n2)CC1` (centres unmarked) [Compound 125], the MAPKAP-K2 activity entry is listed as “++”.
Consider `Fc1ccc(Nc2cc(NC3CCC(NCC4CCCCC4)CC3)nc3ccnn23)cc1Cl` (centres unmarked) [Compound 126], for which the MAPKAP-K2 activity result was “+”.
To `Fc1ccc(Nc2cc(NC3CCC(NCC4CCOC4)CC3)nc3ccnn23)cc1Cl` (centres unmarked) [Compound 127] belongs “++”; to `Fc1ccc(Nc2cc(NC3CCC(NCc4ccoc4)CC3)nc3ccnn23)cc1Cl` (centres unmarked) [Compound 128], “++”; to `Fc1ccc(Nc2cc(NC3CCC(NCc4ccsc4)CC3)nc3ccnn23)cc1Cl` (centres unmarked) [Compound 129], “++”.
